Test results as given in patent US7553845B2, “Substituted indolizine 1,2,3,6,7,8 derivatives, FGFs inhibitors, a method for the preparation thereof and pharmaceutical compositions containing said derivatives” (sanofi-aventis, priority 2003, dated 2009).
Structures can show the parent of a compound that is named as a salt.

Key:
[1] = test system: circulating platelet level; assay: Effect on thrombopenia induced by carboplatin in mice; assay type: in vivo; settings: carboplatin 150 mg/kg intraperitoneally, balbC mice, at nadir
Source text: Thrombopenia remains a pathology for which there are few effective treatments apart from the transfusion of platelet concentrates and thrombopoietin (Kaushansky, K. New Eng J Med (1998), 339, pp 746-754).
Anticancer chemotherapy constitutes one of the major causes of thrombopenia. One of the agents for chemotherapy, carboplatin, has been widely used to induce thrombopenia in mice and to thus be able to characterize the effect of compounds capable of improving the platelet level such as for example thrombopoietin (Hokom M M et al., Blood (1995), 86, pp 4486-4492).
150 mg/kg of carboplatin were administered intraperitoneally to balbC mice weighing 20 g. A blood sample was collected periodically by retro-orbital puncture and the circulating platelet level is determined by a haematology automated machine (MS9™ from Melet-Schloesing Laboratoires, Cergy-Pontoise, France). Under these conditions, a reversible thrombopenia is observed with a nadir situated 9 to 10 days after the administration of carboplatin (reduction in the circulating platelet level by 50-60%).
The compounds according to the invention or their solvent (a blank—control) are administered orally for 5 days by starting the treatment 7 days before the administration of carboplatin. The experiments were carried out on groups comprising 10-12 mice and the results are expressed as a mean±standard error. […]

COC(=O)c1c(C)c(C(=O)c2ccc([N+](=O)[O-])c(OC)c2)n2cccc(OCc3ccccc3)c12
melting point: 125 °C

COC(=O)c1ccc2c(OC)c(C)c(C(=O)c3ccc([N+](=O)[O-])c(OC)c3)n2c1
melting point: 211 °C

COC(=O)c1c(C)c(C(=O)c2ccc([N+](=O)[O-])c(OC)c2)n2cccc(O)c12
melting point: 150 °C

COC(=O)c1c(C)c(C(=O)c2ccc([N+](=O)[O-])c(OC)c2)n2cc(OCc3ccccc3)ccc12
melting point: 179 °C

COc1ccc(-c2c(C)c(C(=O)c3ccc([N+](=O)[O-])c(OC)c3)n3cc(C(N)=O)ccc23)cc1
melting point: 267 °C

COC(=O)c1cc(C(=O)c2c(C)c(-c3cccs3)c3ccccn23)ccc1N
melting point: 162 °C

CCOC(=O)COc1cccn2c(C(=O)c3ccc(N)c(OC)c3)c(C)c(C(=O)OC)c12
melting point: 136 °C

COC(=O)c1ccc2c(OC)c(C)c(C(=O)c3ccc(N)c(OC)c3)n2c1
melting point: 193 °C

COc1cc(C(=O)c2c(C)c(-c3cccs3)c3ccccn23)ccc1N (as salt: HCl) (hydrate or solvate)
melting point: 219 °C

COc1ccc2c(OC)c(C)c(C(=O)c3ccc(N)c(C(=O)O)c3)n2c1 (as salt: Na) (hydrate or solvate)
melting point: 318 °C

CNc1ccn2c(C(=O)c3ccc(N)c(OC)c3)c(C)c(C(=O)O)c2c1 (as salt: Na) (hydrate or solvate)
melting point: 209 to 219 °C

COc1cc(C(=O)c2c(C)c(C(=O)O)c3cc(N(C)C)ccn23)ccc1N (as salt: Na) (hydrate or solvate)
melting point: 222 to 227 °C

N.N.O=C([O-])C1(C(=O)[O-])CCC1.[Pt+2] [carboplatin]
reduction in the circulating platelet level [1]: 50-60%
